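Tested at 5 concentrations; 48 h exposure; 96-well plates; endpoints linearly interpolated, else capped at highest concentration. GI50: concentration for 50% inhibition of growth.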 Activity calls are given as the source filed them. Cut-off read from the data, not from the text of the source: active = GI50 up to about 1.1 µM and inactive = higher.
What was measured:
Assay in all cases: inhibition of tumour cell growth, NCI panel, 48 h
786-0 = tested on: 786-0
A549 = tested on: A549
ACHN = tested on: ACHN
BT-549 = tested on: BT-549
CAKI-1 = tested on: CAKI-1
CCRF-CEM = tested on: CCRF-CEM
COLO 205 = tested on: COLO 205
DU-145 = tested on: DU-145
EKVX = tested on: EKVX
HCT-116 = tested on: HCT-116
HCT-15 = tested on: HCT-15
HL-60 = tested on: HL-60
HOP-62 = tested on: HOP-62
HOP-92 = tested on: HOP-92
HT-29 = tested on: HT-29
Hs-578T = tested on: Hs-578T
IGROV-1 = tested on: IGROV-1
K562 = tested on: K562
KM12 = tested on: KM12
LOX IMVI = tested on: LOX IMVI
M14 = tested on: M14
MDA-MB-231 = tested on: MDA-MB-231
MDA-MB-435 = tested on: MDA-MB-435
MDA-N = tested on: MDA-N
MOLT-4 = tested on: MOLT-4
Malme-3M = tested on: Malme-3M
NCI-H226 = tested on: NCI-H226
NCI-H23 = tested on: NCI-H23
NCI-H522 = tested on: NCI-H522
NCI/ADR-RES = tested on: NCI/ADR-RES
OVCAR-3 = tested on: OVCAR-3
OVCAR-4 = tested on: OVCAR-4
OVCAR-5 = tested on: OVCAR-5
OVCAR-8 = tested on: OVCAR-8
PC-3 = tested on: PC-3
RPMI-8226 = tested on: RPMI-8226
RXF 393 = tested on: RXF 393
SF-268 = tested on: SF-268
SF-295 = tested on: SF-295
SK-MEL-28 = tested on: SK-MEL-28
SK-MEL-2 = tested on: SK-MEL-2
SK-MEL-5 = tested on: SK-MEL-5
SK-OV-3 = tested on: SK-OV-3
SN12C = tested on: SN12C
SNB-19 = tested on: SNB-19
SNB-75 = tested on: SNB-75
SW-620 = tested on: SW-620
T47D = tested on: T47D
TK-10 = tested on: TK-10
U-251 = tested on: U-251
UACC-257 = tested on: UACC-257
UACC-62 = tested on: UACC-62
UO-31 = tested on: UO-31

SMILES: O=S(=O)(O)c1cc(S(=O)(=O)O)c2c(/N=N/c3ccc(S(=O)(=O)O)c4ccccc34)c(O)ccc2c1
- GI50 (786-0): > 100 µM (inactive)
- GI50 (A549): > 100 µM (inactive)
- GI50 (ACHN): > 100 µM (inactive)
- GI50 (BT-549): > 100 µM (inactive)
- GI50 (CAKI-1): > 100 µM (inactive)
- GI50 (CCRF-CEM): > 100 µM (inactive)
- GI50 (COLO 205): > 100 µM (inactive)
- GI50 (DU-145): > 100 µM (inactive)
- GI50 (EKVX): > 100 µM (inactive)
- GI50 (HCT-116): > 100 µM (inactive)
- GI50 (HCT-15): > 100 µM
- GI50 (HL-60): > 100 µM (inactive)
- GI50 (HOP-62): > 100 µM (inactive)
- GI50 (HOP-92): > 100 µM (inactive)
- GI50 (HT-29): > 100 µM (inactive)
- GI50 (Hs-578T): > 100 µM (inactive)
- GI50 (IGROV-1): > 100 µM (inactive)
- GI50 (K562): > 100 µM (inactive)
- GI50 (KM12): > 100 µM (inactive)
- GI50 (LOX IMVI): > 100 µM (inactive)
- GI50 (M14): > 100 µM (inactive)
- GI50 (MDA-MB-231): > 100 µM (inactive)
- GI50 (MDA-MB-435): > 100 µM (inactive)
- GI50 (MDA-N): > 100 µM (inactive)
- GI50 (MOLT-4): > 100 µM (inactive)
- GI50 (Malme-3M): 21.9 µM (inactive)
- GI50 (NCI-H226): > 100 µM (inactive)
- GI50 (NCI-H23): > 100 µM (inactive)
- GI50 (NCI-H522): > 100 µM (inactive)
- GI50 (NCI/ADR-RES): > 100 µM (inactive)
- GI50 (OVCAR-3): > 100 µM (inactive)
- GI50 (OVCAR-4): > 100 µM (inactive)
- GI50 (OVCAR-5): > 100 µM (inactive)
- GI50 (OVCAR-8): > 100 µM (inactive)
- GI50 (PC-3): > 100 µM (inactive)
- GI50 (RPMI-8226): > 100 µM (inactive)
- GI50 (RXF 393): > 100 µM (inactive)
- GI50 (SF-268): > 100 µM (inactive)
- GI50 (SF-295): > 100 µM (inactive)
- GI50 (SK-MEL-28): > 100 µM (inactive)
- GI50 (SK-MEL-2): > 100 µM (inactive)
- GI50 (SK-MEL-5): > 100 µM (inactive)
- GI50 (SK-OV-3): > 100 µM (inactive)
- GI50 (SN12C): > 100 µM (inactive)
- GI50 (SNB-19): > 100 µM (inactive)
- GI50 (SNB-75): > 100 µM (inactive)
- GI50 (SW-620): > 100 µM (inactive)
- GI50 (T47D): > 100 µM (inactive)
- GI50 (TK-10): > 100 µM (inactive)
- GI50 (U-251): > 100 µM (inactive)
- GI50 (UACC-257): > 100 µM (inactive)
- GI50 (UACC-62): > 100 µM (inactive)
- GI50 (UO-31): > 100 µM (inactive)

— ChEMBL document CHEMBL1201862, “PubChem BioAssay data set” (2004)
